Residues, ends and D or L forms follow the SMILES beside them.
Legend:
Experiment in all cases: FP saturation binding assay
[1] = biological target: T1, PIK3R3-NC tandem SH2 domains (Homo sapiens, UniProt Q92569); details: high-confidence ErbB interactions
T1 construct: the tandem protein was included in our analysis with all internal amino acids linking the domains; 6X His; thioredoxin; made in house; host or cells: E. coli BL21(DE3)pLysS
How it was run: (§1)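 Rhodamine-labeled peptides (10 nM final) were titrated with 12 SH2 domain concentrations (0.002–10 µM) in 20 mM HEPES, 100 mM KCl, 0.1% Tween-20, 5 mM DTT, pH 7.8. After 20 min at room temperature in the dark, FP (ex 530/em 555 nm) was read. KDs came from nonlinear least-squares fits.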

[2] = biological target: T2, RASA1-NC tandem SH2 domains (Homo sapiens, UniProt P20936); details: high-confidence ErbB interactions
T2 construct: the tandem protein was included in our analysis with all internal amino acids linking the domains; 6X His; thioredoxin; made in house; host or cells: E. coli BL21(DE3)pLysS
T2 sequence (P20936 181-441 limits assumed): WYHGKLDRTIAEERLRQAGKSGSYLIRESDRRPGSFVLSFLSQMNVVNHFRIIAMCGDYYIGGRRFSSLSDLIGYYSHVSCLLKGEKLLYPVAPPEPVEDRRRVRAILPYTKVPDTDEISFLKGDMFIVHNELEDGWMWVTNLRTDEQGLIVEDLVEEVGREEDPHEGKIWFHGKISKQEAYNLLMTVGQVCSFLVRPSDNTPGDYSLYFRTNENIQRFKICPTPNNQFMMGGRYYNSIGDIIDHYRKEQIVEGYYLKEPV
How it was run: as §1

PIK3R3-N SH2 domain = biological target: T3, PIK3R3-N SH2 domain (Homo sapiens, UniProt Q92569); details: high-confidence ErbB interactions
T3 construct: 6X His; thioredoxin; made in house; host or cells: E. coli BL21(DE3)pLysS
How it was run: as §1

YES1 SH2 domain = biological target: T4, YES1 SH2 domain (Homo sapiens, UniProt P07947); details: high-confidence ErbB interactions
T4 construct: 6X His; thioredoxin; made in house; host or cells: BL21(DE3)pLysS E. coli
T4 sequence (P07947 158-255 limits assumed): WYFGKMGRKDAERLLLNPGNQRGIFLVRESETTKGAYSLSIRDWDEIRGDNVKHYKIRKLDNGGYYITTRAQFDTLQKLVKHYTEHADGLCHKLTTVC
How it was run: as §1

[3] = biological target: T5, PTPN11-NC tandem SH2 domains (Homo sapiens, UniProt Q06124)
T5 sequence (Q06124 6-216 limits assumed): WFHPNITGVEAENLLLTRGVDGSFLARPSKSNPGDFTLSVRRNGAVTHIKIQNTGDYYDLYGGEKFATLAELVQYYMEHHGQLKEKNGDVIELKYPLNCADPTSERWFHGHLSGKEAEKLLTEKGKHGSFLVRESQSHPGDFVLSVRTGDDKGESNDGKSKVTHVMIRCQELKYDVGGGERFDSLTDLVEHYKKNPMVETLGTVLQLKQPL

LCK SH2 domain = biological target: T6, LCK SH2 domain (Homo sapiens, UniProt P06239); details: high-confidence ErbB interactions
T6 construct: 93 SH2 and 2 PTB domain-containing constructs; 6X His; thioredoxin; made in house; host or cells: E. coli BL21(DE3)pLysS
T6 sequence (P06239 127-224 limits assumed): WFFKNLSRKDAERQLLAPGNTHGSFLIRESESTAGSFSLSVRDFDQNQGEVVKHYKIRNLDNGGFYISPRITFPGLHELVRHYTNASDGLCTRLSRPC
How it was run: as §1

PTK6 SH2 domain = biological target: T7, PTK6 SH2 domain (Homo sapiens, UniProt Q13882); details: high-confidence ErbB interactions
T7 construct: from the PTK6 SH2 domain; 6X His; thioredoxin; made in house; host or cells: E. coli BL21(DE3)pLysS
T7 sequence (Q13882 78-170 limits assumed): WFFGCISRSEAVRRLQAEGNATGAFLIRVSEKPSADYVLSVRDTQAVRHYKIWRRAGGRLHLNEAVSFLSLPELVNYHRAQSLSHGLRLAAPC
How it was run: as §1

LYN SH2 domain = biological target: T8, LYN SH2 domain (Homo sapiens, UniProt P07948); details: high-confidence ErbB interactions
T8 construct: 93 SH2 and 2 PTB domain-containing constructs; 6X His; thioredoxin; made in house; host or cells: E. coli BL21(DE3)pLysS
T8 sequence (P07948 129-226 limits assumed): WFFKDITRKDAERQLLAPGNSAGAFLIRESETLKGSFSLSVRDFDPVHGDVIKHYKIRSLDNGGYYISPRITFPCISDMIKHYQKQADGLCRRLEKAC
How it was run: as §1

[4] = Protein PIK3R3-NC, FP saturation binding, mean over replicate hits
[5] = Protein PIK3R3-N, FP saturation binding, mean over replicate hits
[6] = Protein YES1, FP saturation binding, mean over replicate hits
[7] = protein LCK, FP, mean of replicate hits
[8] = protein YES1, FP, mean of replicate hits

CSCC[C@H](NC(=O)[C@H](Cc1ccc(OP(=O)(O)O)cc1)NC(=O)CNC(=O)[C@H](CCC(=O)O)NC(=O)[C@H](CCC(=O)O)NC(=O)[C@H](CC(=O)O)NC(=O)[C@H](CC(C)C)NC(=O)[C@H](CCC(=O)O)NC(=O)CNC(=O)[C@H](CCCNC(=N)N)NC(=O)[C@@H]1CCCN1)C(=O)N[C@H](C(=O)N1CCC[C@H]1C(=O)N[C@@H](CCSC)C(=O)N[C@@H](CCCNC(=N)N)C(=O)N[C@@H](CC(=O)O)C(=O)N[C@@H](CCCCN)C(=O)N[C@@H](CC(=O)O)C(=O)O)[C@@H](C)O [ErbB4 1150 18-mer] (HELM PEPTIDE1{P.R.G.E.L.D.E.E.G.[O=C([C@H](Cc1ccc(OP(=O)(O)O)cc1)N[*:1])[*:2]].M.T.P.M.R.D.K.D}$$$$V2.0)
Kd ([1]; protein PIK3R3-NC, FP, mean of replicate hits): 2.5 µM | Kd ([2]; protein RASA1-NC, FP, mean of replicate hits): 0.41 µM

CC(C)[C@H](NC(=O)[C@H](CC(=O)O)NC(=O)[C@@H]1CCCN1C(=O)[C@H](CCC(N)=O)NC(=O)[C@H](CC(N)=O)NC(=O)[C@@H](NC(=O)[C@H](Cc1ccc(OP(=O)(O)O)cc1)NC(=O)[C@H](CCC(=O)O)NC(=O)[C@@H]1CCCN1C(=O)[C@H](CCC(N)=O)NC(=O)[C@@H]1CCCN1)C(C)C)C(=O)N[C@@H](CCCNC(=N)N)C(=O)N[C@@H](CC(=O)O)C(=O)O [ErbB2 1139 13-mer] (HELM PEPTIDE1{P.Q.P.E.[O=C([C@H](Cc1ccc(OP(=O)(O)O)cc1)N[*:1])[*:2]].V.N.Q.P.D.V.R.D}$$$$V2.0)
Kd [1, 4]: 5.18 µM | Kd (PIK3R3-N SH2 domain; [5]): 9.05 µM | Kd (YES1 SH2 domain; [6]): 13.4 µM | Kd [3]: 8.71 µM

CSCC[C@H](NC(=O)[C@H](CCC(=O)O)NC(=O)[C@H](CCC(=O)O)NC(=O)[C@H](Cc1ccc(OP(=O)(O)O)cc1)NC(=O)CNC(=O)[C@H](CCC(N)=O)NC(=O)[C@H](CCC(=O)O)NC(=O)[C@@H](N)CO)C(=O)N[C@@H](CCCNC(=N)N)C(=O)N[C@@H](C)C(=O)N[C@@H](Cc1ccccc1)C(=O)N[C@@H](CCC(N)=O)C(=O)N[C@@H](CC(=O)O)C(=O)O [ErbB3 1289 13-mer] (HELM PEPTIDE1{S.E.Q.G.[O=C([C@H](Cc1ccc(OP(=O)(O)O)cc1)N[*:1])[*:2]].E.E.M.R.A.F.Q.D}$$$$V2.0)
Kd (PIK3R3-N SH2 domain; protein PIK3R3-N, FP, mean of replicate hits): 0.3 µM | Kd (LCK SH2 domain; [7]): 2.23 µM | Kd (YES1 SH2 domain; [8]): 5.91 µM

CSCC[C@H](NC(=O)[C@H](Cc1ccc(OP(=O)(O)O)cc1)NC(=O)[C@H](CCC(=O)O)NC(=O)[C@H](Cc1ccc(O)cc1)NC(=O)CNC(=O)[C@@H](N)CC(C)C)C(=O)N[C@@H](CC(=O)O)C(=O)N[C@H](C(=O)NCC(=O)N[C@@H](CO)C(=O)N[C@@H](CC(=O)O)C(=O)N[C@@H](CC(C)C)C(=O)N[C@@H](CC(=O)O)C(=O)O)C(C)C [ErbB3 1224 13-mer] (HELM PEPTIDE1{L.G.Y.E.[O=C([C@H](Cc1ccc(OP(=O)(O)O)cc1)N[*:1])[*:2]].M.D.V.G.S.D.L.D}$$$$V2.0)
Kd (LCK SH2 domain; [7]): 3.02 µM | Kd (YES1 SH2 domain; [8]): 2.52 µM | Kd (PTK6 SH2 domain; protein PTK6, FP, mean of replicate hits): 6.58 µM | Kd (LYN SH2 domain; protein LYN, FP, mean of replicate hits): 6.86 µM

CC(C)C[C@H](NC(=O)[C@H](Cc1ccc(OP(=O)(O)O)cc1)NC(=O)[C@H](CC(C)C)NC(=O)[C@@H]1CCCN1C(=O)[C@H](CCC(=O)O)NC(=O)[C@H](CC(N)=O)NC(=O)[C@@H](NC(=O)[C@H](Cc1ccc(O)cc1)NC(=O)[C@H](CCC(=O)O)NC(=O)[C@H](CC(=O)O)NC(=O)[C@@H](N)CCC(=O)O)C(C)C)C(=O)N[C@@H](CC(N)=O)C(=O)N[C@H](C(=O)N[C@@H](Cc1ccccc1)C(=O)N[C@@H](C)C(=O)N[C@@H](CC(N)=O)C(=O)N[C@H](C(=O)N[C@@H](CC(=O)O)C(=O)O)[C@@H](C)O)[C@@H](C)O [ErbB4 1208 18-mer] (HELM PEPTIDE1{E.D.E.Y.V.N.E.P.L.[O=C([C@H](Cc1ccc(OP(=O)(O)O)cc1)N[*:1])[*:2]].L.N.T.F.A.N.T.D}$$$$V2.0)
Kd ([1]; protein PIK3R3-NC, mean of replicate hits): 3.02 µM | Kd ([2]; protein RASA1-NC, mean of replicate hits): 6.39 µM | Kd (PTK6 SH2 domain; protein PTK6, mean of replicate hits): 15.5 µM | Kd (LYN SH2 domain; protein LYN, mean of replicate hits): 5.15 µM

CC(C)C[C@H](NC(=O)[C@H](Cc1ccc(OP(=O)(O)O)cc1)NC(=O)[C@H](CCC(=O)O)NC(=O)[C@H](CCC(=O)O)NC(=O)[C@H](C)NC(=O)[C@@H](N)CC(=O)O)C(=O)N[C@H](C(=O)N1CCC[C@H]1C(=O)N[C@@H](CCC(N)=O)C(=O)N[C@@H](CCC(N)=O)C(=O)NCC(=O)N[C@@H](Cc1ccccc1)C(=O)N[C@@H](CC(=O)O)C(=O)O)C(C)C [ErbB2 1023 13-mer] (HELM PEPTIDE1{D.A.E.E.[O=C([C@H](Cc1ccc(OP(=O)(O)O)cc1)N[*:1])[*:2]].L.V.P.Q.Q.G.F.D}$$$$V2.0)
Kd [1, 4]: 10.7 µM | Kd (PIK3R3-N SH2 domain; [5]): 5.27 µM | Kd ([2]; Protein RASA1-NC, FP saturation binding, mean over replicate hits): 6.65 µM | Kd (PTK6 SH2 domain; Protein PTK6, FP saturation binding, mean over replicate hits): 3.76 µM | Kd [3]: 10.6 µM

CC(C)C[C@H](NC(=O)[C@H](CC(N)=O)NC(=O)[C@@H](N)CC(=O)O)C(=O)N[C@@H](Cc1ccc(O)cc1)C(=O)N[C@@H](Cc1ccc(OP(=O)(O)O)cc1)C(=O)N[C@@H](Cc1c[nH]c2ccccc12)C(=O)N[C@@H](CC(=O)O)C(=O)N[C@@H](CCC(N)=O)C(=O)N[C@@H](CC(=O)O)C(=O)N1CCC[C@H]1C(=O)N1CCC[C@H]1C(=O)N[C@@H](CCC(=O)O)C(=O)N[C@@H](CC(=O)O)C(=O)O [ErbB2 1222 13-mer] (HELM PEPTIDE1{D.N.L.Y.[O=C([C@H](Cc1ccc(OP(=O)(O)O)cc1)N[*:1])[*:2]].W.D.Q.D.P.P.E.D}$$$$V2.0)
Kd [1, 4]: 10.3 µM | Kd (PIK3R3-N SH2 domain; [5]): 9.63 µM | Kd (LCK SH2 domain; Protein LCK, FP saturation binding, mean over replicate hits): 7.7 µM | Kd (YES1 SH2 domain; [6]): 1.52 µM | Kd (LYN SH2 domain; Protein LYN, FP saturation binding, mean over replicate hits): 4.18 µM | Kd [3]: 9.45 µM

From PMC3433420 (PLoS ONE, 2012)
